Where “and” joins values, the source holds several entries; their conditions need not be identical. Equal entries are not always repeated. Entries after “also recorded” stand apart in the source; their conditions may differ.
Assays:
OCI-AML-3 cells [1] = assay: Annexin V-PI apoptosis flow cytometry, OCI-AML-3; type: cell-based, human; details: 24 h, Compound 6 10 nM, HHT 30 nM, alone or combined
Procedure: (§1) In the antiproliferative tests, cells were plated in 96-well plates (Corning, Cat. 3903) at 10000 cells/well/cell line. In the apoptosis assay, cells were plated in 24-well plates (Corning, Cat. 3524) at 200000 cells/well/cell line.
[Experimental Methods]: Flow Cytometer Analysis
Cells were harvested after 24 hours of treatment with Compound 6 alone, HHT alone, or the combination of both, and washed once with phosphate buffered saline (PBS). Cells were stained with Annexin-V and PI and analyzed using an Attune NxT flow cytometer. Apoptosis profiles were obtained by analyzing 20000 cells per experimental condition.
Apoptosis was detected using Annexin V-PI (propidium iodide) staining kit according to the manufacturer's instructions. After treating the cells MV-4-11, OCI-AML-3 and SKM-1 with 10 nM Compound 6 alone, 10 nM or 30 nM HHT alone or the combination of both for 24 hours, the cells were harvested and washed once with PBS. Cells were bi-color stained with Annenix V-FITC and PI. After staining was complete, analysis was performed using an Attune NxT flow cytometer. Apoptosis profiles were obtained by analyzing 20000 cells per experimental condition.

MV-4-11 AML xenograft = assay: human MV-4-11 AML xenograft model in mice; type: in vivo, mouse; details: for mRECIST: MV-4-11 xenograft, animals with response / animals in group; for RTV (D22) (Mean ± SEM) / T/C (%) (D22): female BALB/c Nude mice, s.c. MV-4-11, Compound 6 or ABT-199 50 mg/kg oral once daily 21 days, HHT 1 mg/kg i.p. once daily 14 days, day 22
Procedure: Treatment was initiated on the day of grouping (Day 1). […] HHT was intraperitoneally administered once daily for consecutive 14 days. The tumor sizes (caliper) and animal body weights were measured twice a week.

SKM-1 cells = assay: CellTiter-Glo luminometric cell viability assay (CTG), SKM-1; type: cell-based
Procedure: as §1
(§2) For combination tests, the results were further analyzed using the CalcuSyn program to calculate a Combination Index (CI) (Chou, T. C. (2010) “Drug combination studies and their synergy quantification using the Chou-Talalay method.”, Cancer Res 70(2): 440-446). […]
(§3) The anti-proliferation effects of the test sample in three AML/MDS cell lines, namely MV-4-11 (Compound 6 sensitive cell line), OCI-AML-3 (Compound 6 non-sensitive cell line) and SKM-1 (Compound 6 non-sensitive cell line), were determined by quantifying ATP using CellTiter-Glo luminescence cell viability detection kits, according to the manufacturer's instructions.
(§4) First, cells in the logarithmic growth phase were collected, centrifuged, and the cell suspension was counted and diluted/adjusted to the desired concentration. […] More than 3 blank control wells containing only medium (100 μL/well) without cells were set on the same plate to obtain background luminescence, and cell control wells, i.e., wells containing cells but treated with vehicle control, were set. […]
(§5) Luminescence signals were detected using a Biotek synergy H1 microplate reader. […]

OCI-AML-3 AML xenograft = assay: human OCI-AML-3 AML xenograft model in mice; type: in vivo, mouse; details: female NOD SCID mice, s.c. OCI-AML-3; Compound 6 50 mg/kg oral once daily 14 days; HHT 0.75 mg/kg i.p. once daily 7 days from D2; day 15
Procedure: Treatment was initiated on the grouping day (D1). […] HHT was intraperitoneally injected once daily from D2 and continued for consecutive 7 days. The tumor sizes (caliper) and animal body weights were measured twice a week.

MV-4-11 cells = assay: CellTiter-Glo luminometric cell viability assay (CTG), MV-4-11; type: cell-based, human
Procedure: as §1, §2, §3, §4, §5

OCI-AML-3 cells [2] = assay: CellTiter-Glo luminometric cell viability assay (CTG), OCI-AML-3; type: cell-based, human
Procedure: as §1, §2, §3, §4, §5

MCL-1 = assay: Western Blot assay, MCL-1; type: cell-based, human; details: MV-4-11, OCI-AML-3 and SKM-1 cells, 4 h; 10 nM Compound 6, 10 nM or 30 nM HHT
Procedure: [Experimental Methods]: Western Blot Assay
Western Blot assay was performed after 4 hours treatment of cells in logarithmic growth phase with Compound 6, HHT, either alone or in combination.
After 4 hours of interaction with 10 nM Compound 6 in combination with 10 nM or 30 nM HHT, cells were harvested and washed once with pre-cooled PBS. The cell pellets were lysed using RIPA lysate containing 1% PMSF and 1% protease inhibitor. The protein concentration was detected by using a BCA protein concentration detection kit. Cell lysates (20-50 μg) were separated by 4-20% SDS-PAGE. The separated proteins were transferred to PVDF membranes which were blocked using 1% BSA (bovine serum albumin) buffer at room temperature for 1 hours before incubated in a shaker at 4° C. overnight with primary antibody diluted in 1×TBST (Tris-Buffered Saline Tween-20) containing 1% BSA. The membranes were washed 3 times with 1×TBST each for 10 minutes, and then were incubated for 1 hour at room temperature using horseradish peroxidase (HRP)-tagged secondary antibodies (goat anti-rabbit-HRP (Yeasen, Cat. #33101ES60) and goat anti-mouse-HRP (Yeasen, Cat. #33201ES60), diluted according to the manufacturer's instructions). The membranes were washed 3 times with 1×TBST each for 10 minutes. HRP substrate was added onto the PVDF membrane. […]

| Structure (SMILES) | apoptosis (Annexin V+ cells) (OCI-AML-3 cells [1]) [%] | mRECIST (MV-4-11 AML xenograft) | RTV (D22) (Mean ± SEM) (MV-4-11 AML xenograft) | T/C (%) (D22) (MV-4-11 AML xenograft) | sensitivity of the cell line to Compound 6 (SKM-1 cells) | RTV(D15) (Mean ± SEM) (OCI-AML-3 AML xenograft) | T/C (%) (D15) (OCI-AML-3 AML xenograft) | sensitivity of the cell line to Compound 6 (MV-4-11 cells) | sensitivity of the cell line to Compound 6 (OCI-AML-3 cells [2]) | expression level of anti-apoptosis protein MCL-1 (MCL-1) |
| --- | --- | --- | --- | --- | --- | --- | --- | --- | --- | --- |
| O=C(NS(=O)(=O)c1ccc(NC[C@H]2COCCO2)c([N+](=O)[O-])c1)c1ccc(N2CCN(CC3=C(c4ccc(Cl)cc4)CC4(CCC4)CC3)CC2)cc1Oc1cnc2[nH]ccc2c1 [Compound 6, (S)-N-((4-(((1,4-dioxan-2-yl)methyl)amino)-3-nitrophenyl)sulfonyl)-2-((1H-pyrrolo[2,3-b]pyridin-5-yl)oxy)-4-(4-((6-(4-chlorophenyl)spiro[3.5]non-6-en-7-yl)methyl)piperazin-1-yl)benzamide] | 12.1 | no CR or PR and 6/6 PD | 8.36 ± 0.76 | 62.76 | non-sensitive | 12.77 ± 1.51 | 61.36 | sensitive; also recorded: moderate sensitivity | non-sensitive |  |
| COC(=O)C[C@](O)(CCCC(C)(C)O)C(=O)O[C@@H]1C(OC)=C[C@]23CCCN2CCc2cc4c(cc2[C@H]13)OCO4 [HHT, homoharringtonine] | 25.0 | 3/5 SD and 3/5 SD, 2/5 PD | 4.32 ± 1.42 | 32.43 |  | 13.89 ± 0.82 | 66.77 |  |  | reduce the expression level |
| CC1(C)CCC(CN2CCN(c3ccc(C(=O)NS(=O)(=O)c4ccc(NCC5CCOCC5)c([N+](=O)[O-])c4)c(Oc4cnc5[nH]ccc5c4)c3)CC2)=C(c2ccc(Cl)cc2)C1 [ABT-199] |  | no CR or PR and 6/6 PD | 11.77 ± 1.94 | 88.27 |  |  |  |  |  |  |

Reference: patent publication US12370197B2, “Combination product of a Bcl-2/Bcl-xL inhibitor and a chemotherapeutic agent and use thereof in the prevention and/or treatment of diseases” (ASCENTAGE PHARMA (SUZHOU) CO., LTD., priority 2019, dated 2025)
